The source of these data is ChEMBL document CHEMBL1201862, “PubChem BioAssay data set” (2004).

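Following 48 hours of exposure in 96-well plates, responses at five concentrations were used to interpolate endpoints linearly. GI50: concentration for 50% inhibition of growth.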 Active and inactive are the calls of the source. Cut-off read from the data, not from the text of the source: active = GI50 up to about 1.1 µM and inactive = higher.

Test systems include SN12C; SNB-75; SF-268; COLO 205; IGROV-1; HOP-62; SK-OV-3; K562; MOLT-4; SK-MEL-28; UACC-62; RXF 393; NCI-H522; OVCAR-3.
Holding throughout (assay): NCI anticancer screen, dose series, 48 h

Turning to `CC(c1ccc2c(c1)CCC1C2CC2OC23CC=CC(=O)[C@]13C)C1C[C@]2(C)O[C@]2(C)[C@H](O)O1` (some centres undefined), the GI50 in the assay on SN12C was > 100 µM (inactive); in the assay with SNB-75, 58.9 µM (inactive); in the assay with SF-268, 63.4 µM (inactive); in the assay with COLO 205, 71.9 µM (inactive); with IGROV-1, 90.6 µM (inactive); with HOP-62, 0.791 µM (active). Besides, the GI50 with SK-OV-3 was > 100 µM (inactive); with K562 it was 3.14 µM (inactive); in the assay on MOLT-4 it was 13.4 µM (inactive); in the assay on SK-MEL-28 it was 50.8 µM (inactive); with UACC-62, 91.2 µM (inactive); with RXF 393, 11.7 µM (inactive). Further, the figures for the GI50 in the assay with NCI-H522 and with OVCAR-3 were 14 µM (inactive) and 19.2 µM (inactive), respectively.

Take `CC(=O)Oc1ccc2c(c1)C(=O)c1nc(C)c(C)nc1C2=O`: the GI50 with SN12C was 46.5 µM (inactive); in the assay on SNB-75, 80.4 µM (inactive); with SF-268 it was 94.2 µM (inactive); in the assay with COLO 205, 50 µM (inactive); in the assay with IGROV-1, 46.8 µM (inactive); in the assay with HOP-62 it was 23.7 µM (inactive). Also, the GI50 with SK-OV-3 is 71.8 µM (inactive); in the assay with K562 it was 47 µM (inactive); in the assay on MOLT-4, 41.8 µM (inactive); with SK-MEL-28 it was 46.1 µM (inactive); in the assay on UACC-62, 17.5 µM (inactive); in the assay with RXF 393, 31.8 µM (inactive). Further, the GI50 is 50.6 µM (inactive) with NCI-H522 and 21.4 µM (inactive) in the assay with OVCAR-3.

For the compound `Brc1ccc(-c2cc3c(cc2C2SCCS2)OCO3)cc1`, the GI50 is 29 µM (inactive) in the assay on SN12C; 1.25 µM (inactive) in the assay on SNB-75; 26.9 µM (inactive) in the assay on SF-268; 27.3 µM (inactive) in the assay with COLO 205; 37.2 µM (inactive) with IGROV-1; 31.4 µM (inactive) with HOP-62. The GI50 is 21.3 µM (inactive) with SK-OV-3; 15.2 µM (inactive) in the assay with K562; 13.4 µM (inactive) in the assay with MOLT-4; > 100 µM (inactive) in the assay on SK-MEL-28; 12.9 µM (inactive) in the assay with RXF 393; 10.9 µM (inactive) in the assay on NCI-H522. For the same compound, the GI50 with OVCAR-3 was 16.6 µM (inactive).

In the case of `CN(C)CCn1cnc2ncccc2c1=O`, the GI50 in the assay with SN12C, in the assay with SNB-75, in the assay on SF-268, in the assay on COLO 205, in the assay with IGROV-1 and in the assay with HOP-62 was > 100 µM (inactive) in each case. In addition, the GI50 in the assay on SK-OV-3, in the assay on K562, with MOLT-4, with SK-MEL-28, in the assay with UACC-62 and with RXF 393 was > 100 µM (inactive) throughout. Moreover, the GI50 in the assay on NCI-H522 and in the assay with OVCAR-3 was > 100 µM (inactive) each time.

As to `O=C1NC(=O)C2C1C1C=C3c4ccccc4N(c4ccccc4)C32[C@H]2C(=O)NC(=O)[C@@H]12` (some centres undefined), the GI50 with SN12C, in the assay with SNB-75, with SF-268, in the assay with COLO 205, with IGROV-1 and in the assay on HOP-62 was > 100 µM (inactive) in each case. The GI50 in the assay on SK-OV-3, in the assay on K562, with MOLT-4, with SK-MEL-28, with UACC-62 and with NCI-H522 was > 100 µM (inactive) in each case. Besides, the GI50 in the assay with OVCAR-3 is > 100 µM (inactive).

Regarding `CCc1c(OC(C)=O)c2c(NC3OC(COC(C)=O)C(OC(C)=O)C(OC(C)=O)C3OC(C)=O)nc(SC)nc2oc1=O` (centres undefined), the GI50 in the assay on SN12C, with SNB-75, in the assay on COLO 205, in the assay with IGROV-1, with HOP-62 and with SK-OV-3 was > 100 µM (inactive) in each case. In addition, the GI50 in the assay with K562, in the assay with MOLT-4, with UACC-62, with RXF 393 and with OVCAR-3 was > 100 µM (inactive) each time.

`Cn1c(=O)n(C2(C)CSC2)c2ccccc21`: the GI50 in the assay with SN12C, in the assay on SNB-75, in the assay on SF-268, with COLO 205, with IGROV-1 and with HOP-62 was > 100 µM (inactive) in each case. In addition, the GI50 with SK-OV-3, with K562, in the assay with MOLT-4, in the assay on SK-MEL-28, with UACC-62 and in the assay with RXF 393 was > 100 µM (inactive) throughout. Further, in the assay with NCI-H522, the GI50 was > 100 µM (inactive).

As to `Cc1ccc(S(=O)(=O)N/N=C/CN2C(=O)c3ccccc3C2=O)cc1`, the GI50 with SN12C, in the assay with SNB-75, in the assay on COLO 205, in the assay on IGROV-1, with HOP-62 and with K562 was > 100 µM (inactive) throughout. Besides, the GI50 in the assay on MOLT-4 is > 100 µM (inactive); in the assay on UACC-62, 89.5 µM (inactive); in the assay on NCI-H522 it was > 100 µM (inactive).

Regarding `O=[N+]([O-])c1ccc(Cl)c(C2SCc3nc4ccccc4n32)c1` (centres undefined), the GI50 is 43.6 µM (inactive) with SN12C; 24.9 µM (inactive) in the assay with SNB-75; 29.8 µM (inactive) in the assay with SF-268; 37.6 µM (inactive) with COLO 205; 46.2 µM (inactive) in the assay on IGROV-1; 36.6 µM (inactive) in the assay with SK-OV-3. In addition, the GI50 in the assay with K562 is 27.7 µM (inactive); in the assay on MOLT-4, 24.2 µM (inactive); in the assay on SK-MEL-28, 40.6 µM (inactive); in the assay on UACC-62, 39.9 µM (inactive); in the assay on RXF 393, 33 µM (inactive); with NCI-H522 it was 22.3 µM (inactive). Further, the GI50 in the assay on OVCAR-3 is 36.6 µM (inactive).

As to `CC(C)(C)C1=CC(CCC(=O)Nc2ccccc2[N+](=O)[O-])=NC(S)N1` (centres undefined), the GI50 in the assay on SN12C, with SF-268, in the assay with COLO 205, in the assay on IGROV-1, in the assay on HOP-62 and in the assay with SK-OV-3 was > 100 µM (inactive) throughout. For the same compound, the GI50 in the assay on K562, with MOLT-4, in the assay on SK-MEL-28, in the assay on UACC-62, in the assay with RXF 393 and with OVCAR-3 was > 100 µM (inactive) throughout.

Consider `O=C(NC1CCCC1=O)c1ccccc1` (centres undefined), for which the GI50 is > 100 µM (inactive) in the assay on SN12C; 31.5 µM (inactive) in the assay on SNB-75; > 100 µM (inactive) in the assay with SF-268; > 100 µM (inactive) in the assay on IGROV-1; > 100 µM (inactive) in the assay with HOP-62; > 100 µM (inactive) in the assay with SK-OV-3. Besides, the GI50 in the assay with K562, in the assay on MOLT-4, in the assay on SK-MEL-28, in the assay on UACC-62, with RXF 393 and in the assay with OVCAR-3 was > 100 µM (inactive) each time.

In the case of `COc1ccc(/C=C2\CCc3ccccc3C2=O)cc1OC`, the GI50 in the assay on SN12C is 25.2 µM (inactive); in the assay with SNB-75, 21.4 µM (inactive); in the assay with SF-268, 20.8 µM (inactive); in the assay on COLO 205, 19.5 µM (inactive); in the assay with IGROV-1 it was 27.4 µM (inactive); in the assay on HOP-62, 76.7 µM (inactive). For the same compound, the GI50 in the assay on SK-OV-3 is 18.7 µM (inactive); in the assay on K562 it was 23.2 µM (inactive); with MOLT-4 it was 21.4 µM (inactive); with SK-MEL-28, 25.3 µM (inactive); in the assay with UACC-62 it was 16 µM (inactive); in the assay with NCI-H522 it was 17.1 µM (inactive). The GI50 with OVCAR-3 is 33.6 µM (inactive).

As to `Nc1nc(=O)n([C@@H]2CC[C@H](CO)O2)cc1F`, the GI50 in the assay with SN12C, with SNB-75, in the assay on SF-268, in the assay on COLO 205, with HOP-62 and in the assay with SK-OV-3 was > 100 µM (inactive) throughout. The GI50 in the assay on K562, with MOLT-4, in the assay on SK-MEL-28, in the assay with RXF 393, in the assay on NCI-H522 and in the assay with OVCAR-3 was > 100 µM (inactive) throughout.

Regarding `Cc1ccc(N2C(=O)/C(=C/c3ccc(N(CCC#N)CCC#N)cc3C)N=C2c2cc([N+](=O)[O-])ccc2Cl)cc1`, the GI50 in the assay with SN12C, in the assay on SNB-75, with SF-268, in the assay with COLO 205, with IGROV-1 and with HOP-62 was > 100 µM (inactive) in each case. Moreover, the GI50 in the assay with SK-OV-3 was > 100 µM (inactive); with K562 it was > 100 µM (inactive); in the assay with MOLT-4, 91.2 µM (inactive); in the assay with SK-MEL-28, > 100 µM (inactive); in the assay on UACC-62, > 100 µM (inactive); in the assay on NCI-H522 it was > 100 µM (inactive). The GI50 in the assay on OVCAR-3 was > 100 µM (inactive).

In the case of `Cc1cc2c(c(C(N)=O)c1C)-c1cccc(Cl)c1C2=O`, the GI50 in the assay with SN12C is > 100 µM (inactive); in the assay with SNB-75, 6.7 µM (inactive); in the assay with SF-268 it was > 100 µM (inactive); in the assay on COLO 205, > 100 µM (inactive); in the assay on IGROV-1 it was > 100 µM (inactive); with HOP-62 it was > 100 µM (inactive). The GI50 with SK-OV-3 was > 100 µM (inactive); in the assay on K562 it was > 100 µM (inactive); in the assay on MOLT-4, 57.9 µM (inactive); in the assay on SK-MEL-28 it was > 100 µM (inactive); in the assay with UACC-62 it was > 100 µM (inactive); with NCI-H522, 27 µM (inactive). In addition, the GI50 in the assay with OVCAR-3 was > 100 µM (inactive).
